{
  "source": "paper PMC10048662",
  "about": "“Whole-Cell Biocatalytic Production of Acetoin with an aldC-Overexpressing Lactococcus lactis Using Soybean as Substrate” (Foods, 2023)",
  "target": "T1, ALDC (α-acetolactate decarboxylase, aldC) (Lactiplantibacillus plantarum, UniProt F9UPY7)",
  "T1 construct": "gene aldB; expressed in Lactococcus lactis NZ9000 from pNZ8048, crude lysate supernatant; ALDC described as dimer",
  "T1 sequence (F9UPY7 entry or part of it)": "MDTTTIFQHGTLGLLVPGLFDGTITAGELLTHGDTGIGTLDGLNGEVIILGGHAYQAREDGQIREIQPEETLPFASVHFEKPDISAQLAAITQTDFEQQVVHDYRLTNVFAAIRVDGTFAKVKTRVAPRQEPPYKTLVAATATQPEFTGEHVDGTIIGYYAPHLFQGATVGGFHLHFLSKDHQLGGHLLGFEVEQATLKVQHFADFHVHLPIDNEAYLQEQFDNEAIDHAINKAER",
  "assay": "acetoin formation, creatine/α-naphthol colour reaction at […] nm",
  "format": "biochemical",
  "settings": "crude lysate supernatant of nisin-induced cells; 30 °C, 20 min; uninduced cells as comparison",
  "data": [
    {"smiles": "CC(=O)C(C)(O)C(=O)O", "note": "(racemic) [α-acetolactate]", "values": [
      {"measurement": "acetoin formation, creatine/α-naphthol colour reaction at 522 nm", "value": "the expressed ALDC can efficiently convert α-acetolactate to acetoin"}
    ]}
  ]
}
